From ChEMBL document CHEMBL3885861, “Open TG-GATES”

Organism: Rattus norvegicus
Test: Open TG-GATES - Regimen: Daily Repeat
Format: toxicity, organism-based, Sprague-Dawley
Set-up: regimen Daily Repeat, gender Male, age 6 weeks
Details: in vivo, po, route gavage; for APTT / Bas / Eos / Fbg / Hb / Ht / Lym / MCH / MCHC / MCV / Mono / Neu / PT / Plat / RBC / Ret / WBC: tissue Blood; for KIDNEY_L / KIDNEY_R / KIDNEY_TOTAL: tissue Kidney; for LIVER: tissue Liver; for ALP / ALT / BUN / CRE / Ca / DBIL / GLC / K / LDH / Na / PL / RALB / TBIL / TC / TG / TP / gamma-GTP / AST: tissue Plasma
[1] = 60 mg/kg, 72 h, dose level Middle, time 3 day
[2] = 60 mg/kg, […], dose level Middle, time 7 day
[3] = 60 mg/kg, […], dose level Middle, time 14 day
[4] = 60 mg/kg, […], dose level Middle, time 28 day
[5] = 200 mg/kg, 72 h, dose level High, time 3 day
[6] = 200 mg/kg, […], dose level High, time 7 day
[7] = 200 mg/kg, […], dose level High, time 14 day
[8] = 200 mg/kg, […], dose level High, time 28 day

CCCCc1oc2ccccc2c1C(=O)c1cc(I)c(OCCN(CC)CC)c(I)c1 [AMIODARONE]
TERMINAL_BW [1]: 226.1 g
APTT [1]: 18.2 s
Bas [1]: 0%
Eos [1]: 1.2%
Fbg [1]: 225.8 mg/dL
Hb [1]: 13.5 g/dL
Ht [1]: 39.6%
Lym [1]: 79.2%
MCH [1]: 21.1 pg
MCHC [1]: 34.1%
MCV [1]: 62.1 fL
Mono [1]: 2.6%
Neu [1]: 15.8%
PT [1]: 12.8 s
Plat [1]: 127.1 x10_4/uL
RBC [1]: 637.8 x10_4/ul
Ret [1]: 5.5%
WBC [1]: 99.3 x10_2/uL
KIDNEY_L [1]: 1 g
KIDNEY_R [1]: 1 g
KIDNEY_TOTAL [1]: 2.1 g
LIVER [1]: 11 g
ALP [1]: 1120.2 IU/L
ALT [1]: 37.8 IU/L
BUN [1]: 16 mg/dL
CRE [1]: 0.3 mg/dL
Ca [1]: 10.7 mg/dL
DBIL [1]: 0.096 mg/dL
GLC [1]: 196.6 mg/dL
K [1]: 3.8 meq/L
LDH [1]: 194.6 IU/L
Na [1]: 140.8 meq/L
PL [1]: 147 mg/dL
RALB [1]: 3.4 g/dL
TBIL [1]: 0.1 mg/dL
TC [1]: 73.8 mg/dL
TG [1]: 101.8 mg/dL
TP [1]: 5.5 g/dL
gamma-GTP [1]: 1 IU/L
TERMINAL_BW [2]: 259.8 g
TERMINAL_BW [3]: 302.6 g
TERMINAL_BW [4]: 385.9 g
APTT [2]: 17.9 s
Bas [2]: 0%
Eos [2]: 1%
Fbg [2]: 216.8 mg/dL
Hb [2]: 13 g/dL
Lym [2]: 76.2%
MCH [2]: 20.9 pg
MCHC [2]: 34.1%
Mono [2]: 3.2%
Neu [2]: 18.6%
PT [2]: 12.3 s
Plat [2]: 132.6 x10_4/uL
RBC [2]: 622.6 x10_4/ul
Ret [2]: 5.4%
WBC [2]: 103.2 x10_2/uL
APTT [3]: 20.8 s
Bas [3]: 0%
Eos [3]: 0.4%
Fbg [3]: 214.4 mg/dL
Hb [3]: 14.4 g/dL
Ht [3]: 41.1%
Lym [3]: 79%
MCH [3]: 20.9 pg
MCHC [3]: 35%
MCV [3]: 59.7 fL
Mono [3]: 2.2%
Neu [3]: 17.4%
Plat [3]: 115.4 x10_4/uL
RBC [3]: 688.2 x10_4/ul
Ret [3]: 4.3%
WBC [3]: 115.1 x10_2/uL
APTT [4]: 20.6 s
Bas [4]: 0%
Eos [4]: 1%
Fbg [4]: 218.6 mg/dL
Ht [4]: 42.1%
Lym [4]: 78.2%
MCH [4]: 19.7 pg
MCHC [4]: 35%
MCV [4]: 56.3 fL
Mono [4]: 2.6%
Neu [4]: 17%
Plat [4]: 111.2 x10_4/uL
RBC [4]: 748.8 x10_4/ul
Ret [4]: 2.8%
WBC [4]: 115.2 x10_2/uL
KIDNEY_L [2]: 1.2 g
KIDNEY_R [2]: 1.1 g
KIDNEY_TOTAL [2]: 2.3 g
KIDNEY_L [3]: 1.2 g
KIDNEY_R [3]: 1.2 g
KIDNEY_TOTAL [3]: 2.3 g
KIDNEY_L [4]: 1.3 g
KIDNEY_R [4]: 1.3 g
KIDNEY_TOTAL [4]: 2.7 g
LIVER [3]: 13.8 g
LIVER [4]: 16.9 g
ALP [2]: 981 IU/L
ALT [2]: 34.8 IU/L
AST [2]: 60 IU/L
BUN [2]: 17.4 mg/dL
CRE [2]: 0.3 mg/dL
Ca [2]: 10.5 mg/dL
DBIL [2]: 0.1 mg/dL
GLC [2]: 208 mg/dL
K [2]: 4 meq/L
LDH [2]: 174.8 IU/L
Na [2]: 140.2 meq/L
PL [2]: 166.8 mg/dL
RALB [2]: 3.3 g/dL
TBIL [2]: 0.2 mg/dL
TC [2]: 90.8 mg/dL
TG [2]: 98.6 mg/dL
TP [2]: 5.5 g/dL
gamma-GTP [2]: 0.8 IU/L
ALP [3]: 996.2 IU/L
ALT [3]: 41.4 IU/L
AST [3]: 64.6 IU/L
BUN [3]: 16.6 mg/dL
CRE [3]: 0.4 mg/dL
Ca [3]: 10.6 mg/dL
DBIL [3]: 0.086 mg/dL
GLC [3]: 224.6 mg/dL
K [3]: 3.5 meq/L
LDH [3]: 174.6 IU/L
Na [3]: 140.4 meq/L
PL [3]: 171.6 mg/dL
RALB [3]: 3.4 g/dL
TBIL [3]: 0.1 mg/dL
TC [3]: 90.4 mg/dL
TG [3]: 102 mg/dL
TP [3]: 5.9 g/dL
gamma-GTP [3]: 1.8 IU/L
ALP [4]: 803.2 IU/L
ALT [4]: 34.4 IU/L
AST [4]: 56.4 IU/L
BUN [4]: 18 mg/dL
CRE [4]: 0.5 mg/dL
Ca [4]: 10.4 mg/dL
DBIL [4]: 0.098 mg/dL
GLC [4]: 192.6 mg/dL
K [4]: 3.7 meq/L
LDH [4]: 152.6 IU/L
Na [4]: 141 meq/L
PL [4]: 167.2 mg/dL
RALB [4]: 3.3 g/dL
TBIL [4]: 0.2 mg/dL
TC [4]: 86.6 mg/dL
TG [4]: 120 mg/dL
TP [4]: 6 g/dL
gamma-GTP [4]: 1.6 IU/L
TERMINAL_BW [5]: 204.2 g
APTT [5]: 27.3 s
Bas [5]: 0%
Eos [5]: 1.2%
Fbg [5]: 214.6 mg/dL
Hb [5]: 14.1 g/dL
Ht [5]: 40.9%
Lym [5]: 84.6%
MCH [5]: 20.9 pg
MCHC [5]: 34.4%
MCV [5]: 60.8 fL
Mono [5]: 3.2%
Neu [5]: 9.2%
PT [5]: 15.9 s
Plat [5]: 122.1 x10_4/uL
RBC [5]: 672.8 x10_4/ul
Ret [5]: 3.5%
WBC [5]: 70.5 x10_2/uL
KIDNEY_L [5]: 0.9 g
KIDNEY_R [5]: 0.9 g
KIDNEY_TOTAL [5]: 1.8 g
LIVER [5]: 9 g
ALP [5]: 1623.2 IU/L
BUN [5]: 14.2 mg/dL
CRE [5]: 0.3 mg/dL
Ca [5]: 10 mg/dL
DBIL [5]: 0.062 mg/dL
GLC [5]: 193.2 mg/dL
K [5]: 3.6 meq/L
LDH [5]: 222.2 IU/L
Na [5]: 140.2 meq/L
PL [5]: 181.6 mg/dL
RALB [5]: 3.4 g/dL
TBIL [5]: 0.1 mg/dL
TC [5]: 135 mg/dL
TG [5]: 33.2 mg/dL
TP [5]: 5.7 g/dL
gamma-GTP [5]: 0.8 IU/L
TERMINAL_BW [6]: 210.1 g
TERMINAL_BW [7]: 194.8 g
TERMINAL_BW [8]: 228 g
APTT [6]: 33.7 s
Bas [6]: 0%
Eos [6]: 0.8%
Fbg [6]: 202.2 mg/dL
Hb [6]: 14.6 g/dL
Ht [6]: 41.9%
Lym [6]: 82.8%
MCH [6]: 21.2 pg
MCHC [6]: 34.9%
MCV [6]: 60.7 fL
Mono [6]: 2.6%
Neu [6]: 13.2%
PT [6]: 17.5 s
Plat [6]: 127 x10_4/uL
RBC [6]: 690.2 x10_4/ul
Ret [6]: 1.4%
WBC [6]: 119 x10_2/uL
APTT [7]: 26.9 s
Bas [7]: 0%
Eos [7]: 0.8%
Fbg [7]: 180.2 mg/dL
Hb [7]: 16 g/dL
Ht [7]: 44.7%
Lym [7]: 68%
MCH [7]: 20 pg
MCHC [7]: 35.9%
MCV [7]: 55.6 fL
Mono [7]: 1.6%
Neu [7]: 29.6%
PT [7]: 15 s
Plat [7]: 109.5 x10_4/uL
RBC [7]: 803.6 x10_4/ul
Ret [7]: 0.8%
WBC [7]: 77.9 x10_2/uL
APTT [8]: 27.4 s
Bas [8]: 0%
Eos [8]: 0.8%
Fbg [8]: 215.8 mg/dL
Hb [8]: 15.6 g/dL
Ht [8]: 42.8%
Lym [8]: 64%
MCH [8]: 19 pg
MCHC [8]: 36.4%
MCV [8]: 52.2 fL
Mono [8]: 2%
Neu [8]: 32%
PT [8]: 17 s
Plat [8]: 159.1 x10_4/uL
RBC [8]: 819 x10_4/ul
Ret [8]: 2.1%
WBC [8]: 96 x10_2/uL
KIDNEY_L [6]: 0.9 g
KIDNEY_R [6]: 0.9 g
KIDNEY_TOTAL [6]: 1.9 g
KIDNEY_L [7]: 0.9 g
KIDNEY_R [7]: 0.9 g
KIDNEY_TOTAL [7]: 1.7 g
KIDNEY_L [8]: 0.9 g
KIDNEY_R [8]: 1 g
KIDNEY_TOTAL [8]: 1.9 g
LIVER [6]: 9.6 g
LIVER [7]: 9.1 g
ALP [6]: 1316.2 IU/L
ALT [6]: 31 IU/L
AST [6]: 56.4 IU/L
BUN [6]: 13.6 mg/dL
CRE [6]: 0.4 mg/dL
Ca [6]: 10 mg/dL
DBIL [6]: 0.068 mg/dL
GLC [6]: 184.4 mg/dL
K [6]: 4 meq/L
LDH [6]: 215.6 IU/L
Na [6]: 139.2 meq/L
PL [6]: 182.8 mg/dL
RALB [6]: 3.4 g/dL
TBIL [6]: 0.1 mg/dL
TC [6]: 144.8 mg/dL
TG [6]: 24.6 mg/dL
TP [6]: 5.8 g/dL
gamma-GTP [6]: 1.2 IU/L
ALP [7]: 1457.8 IU/L
ALT [7]: 44.8 IU/L
AST [7]: 59.8 IU/L
BUN [7]: 16.6 mg/dL
CRE [7]: 0.5 mg/dL
Ca [7]: 9.6 mg/dL
DBIL [7]: 0.064 mg/dL
GLC [7]: 200.8 mg/dL
K [7]: 3.6 meq/L
LDH [7]: 176.6 IU/L
Na [7]: 139.4 meq/L
PL [7]: 190.4 mg/dL
RALB [7]: 3.4 g/dL
TBIL [7]: 0.1 mg/dL
TC [7]: 163.4 mg/dL
TP [7]: 5.7 g/dL
gamma-GTP [7]: 1.6 IU/L
ALP [8]: 1315 IU/L
ALT [8]: 39.8 IU/L
AST [8]: 82 IU/L
BUN [8]: 15.5 mg/dL
CRE [8]: 0.5 mg/dL
Ca [8]: 9.4 mg/dL
DBIL [8]: 0.065 mg/dL
GLC [8]: 169 mg/dL
K [8]: 3.9 meq/L
LDH [8]: 184 IU/L
Na [8]: 139.8 meq/L
PL [8]: 177 mg/dL
RALB [8]: 3.3 g/dL
TBIL [8]: 0.1 mg/dL
TC [8]: 127.5 mg/dL
TG [8]: 26.5 mg/dL
TP [8]: 5.8 g/dL
gamma-GTP [8]: 1.2 IU/L
